US20160169896A1, “Methods for Predicting and Treating Bone Metastases in Prostate Cancer Patients” (INSERM (institut NAtional de la Sante et de la Recherche …, priority 2012, published 2016)

System: PC3 cells
Test: Real-time PCR of factor expression in PC3 cells treated with the ERRα inverse agonist XCT790 versus DMSO
Assay type: cell-based, human
Settings: XCT790 5 10^−7M, 24 hours, compared to DMSO control
Description: PC3 cell line was obtained from the American Type Culture Collection (ATCC, Manassas, Va., USA). PC3 cells are routinely cultured in F12K nutrient mixture and DMEM medium (Gibco/Invitrogen; Carlsbad, Calif., USA) respectively supplemented with 10% (v/v) fetal bovine serum (FBS; Perbio/Thermo scientific; Rockford, Ill., USA) and 1% (v/v) penicillin/streptomycin (Invitrogen; Carlsbad, Calif., USA) at 37° C. in a 5% CO2 incubator.
Human ERRα cDNA (WT) was obtained from mRNA extracted from BO2-FRT cells, by using RT-PCR with specific primers ((NM_004451.3) (Fradet et al, 2011). Amplimers were sequenced for verification. The pcDNA5/ERRα-WT (WT) and empty pcDNA5 (used as control (CT)) constructs were transfected using Transfast (Promega). For clonal selection, cells were cultured for 4 weeks in the presence of puromycin (1 μg/ml PC3) (Invitrogen). XCT790, an inverse agonist of ERRα was tested in vitro on PC3 cells at 5.10^−7M compare to DMSO for 24 h.
Total RNA was extracted with Trizol reagent (Sigma) from PC3 cells, PC3 tumors, MC3T3-E1 cells. Samples of total RNA (2 μg) were reverse-transcribed using random hexamer (Promega) and the first strand synthesis kit of Superscript™ II (Invitrogen). Real-time RT-PCR was performed on a Roche Lightcycler Module (Roche) with primers specific for human and mouse. Real-time RT-PCR was carried out by using (SYBR Green; Qiagen,) on the LightCycler system on (Roche) according to the manufacturer's instructions with an initial step for 10 min at 95° C. followed by 40 cycles of 20 sec at 95° C., 10 sec at Tm (see Tables 1-2) and 10 sec at 72° C. We verified that a single peak was obtained for each product using the Roche software. Amplimers were all normalized to corresponding L32 values. Data analysis was carried out using the comparative Ct method: in real-time each replicate average genes CT was normalized to the average CT of L32 by subtracting the average CT of L32 from each replicate to give the ACT. Results are expressed as Log^-2 ΔΔCT with ΔΔCT equivalent to the ΔCT of the genes in PC3 (clone, XCT), tumors or treated MC3T3-E1 subtracting to the ACT of the endogenous control (empty vectors control for clones or tumors, DMSO for the XCT experiment and empty vectors control conditioned media treated MC3T3-E1 respectively).
To confirm the regulation of the factors identified in PC3 over-expressing ERRα, we treat PC3 cells by the inverse agonist XCT790 (5 10^−7M) for 24 hours. XCT790 is able to block the interaction between ERRα and his co-activators PGC1a and b that will have as a consequence the inhibition of ERRα transcriptional activity.

COc1cc(/C=C(\C#N)C(=O)Nc2nnc(C(F)(F)F)s2)ccc1OCc1ccc(C(F)(F)F)cc1C(F)(F)F [XCT790, (2E)-3-(4-{[2,4-bis(trifluoromethyl)benzyl]oxy}-3-methoxyphenyl)-2-cyano-N-[5-(trifluoromethyl)-1,3,4-thiadiazol-2-yl]acrylamide]
CK (cathepsin K) expression (real-time PCR): no CK were found statistically down-regulated | ET1 expression (real-time PCR): identified as direct ERRα/PGC1 target genes | MCP1 expression (real-time PCR): statistically down-regulated | OPG expression (real-time PCR): statistically down-regulated | Runx2 expression (real-time PCR): statistically down-regulated | Wnt3a expression (real-time PCR): identified as direct ERRα/PGC1 target genes | Wnt5a expression (real-time PCR): identified as direct ERRα/PGC1 target genes
